From US9513288B2, “Isoform-selective inhibitors and activators of PDE3 cyclic nucleotide phosphodiesterases” (The United States of America, as represented by the …, priority 2001, dated 2016)
Like-named read-outs stand apart in the source and are kept apart here.

What was measured:
[1] = system: 3T3 adipocytes; assay: Association of PKB with PDE3B in microsomal fractions of 3T3 adipocytes; format: cell-based; settings: not shown
Excerpt: The interactions of PKB with PDE3B were examined. Microsomal fractions of 3T3 adipocytes (which express PDE3B) were solubilized with NP-40 and fractionated by gel filtration. […] An association between PKB and PDE3B was confirmed by the ability of anti-PDE3B antibodies to co-immunoprecipitate the two proteins in the PDE3B peak (not shown).

[2] = system: PDE3; assay: cAMP-hydrolytic activity in cytosolic and microsomal fractions of human myocardium; format: biochemical
[3] = system: PDE3A1; assay: Phosphorylation and 14-3-3 binding of FLAG-tagged PDE3A1 in transfected HEK293 cells; format: cell-based, human; settings: PMA 10 ng/ml 15 min; for phosphorylation of PDE3A1 at S428 / phosphorylation of PDE3A1 at S312: dibutyryl cAMP 1 mM 1 hour, phosphospecific antibodies
Description: (§1) FIGS. 8A-8C Illustrate phosphorylation of PDE3A1 and PDE3A2 in response to PKA and PKC activation. HEK293 cells were transfected with FLAG-tagged PDE3A2 and PDE3A1. (A) Prior to lysis and immunoprecipitation with anti-FLAG antibodies, cells were treated with 1 µM isoproterenol for 90 sec or 10 ng/ml PMA for 15 min. (B) The experiment was carried out in cells incubated in the absence and presence of 100 μM IBMX before treatment with 1 µM isoproterenol for 90 sec. (C) FLAG-tagged PDE3A2 and PDE3A1, affinity-purified from transfected cells using anti-FLAG antibodies, were incubated in the absence or presence of 10 or 100 nM PKA and 200 μM ATP for 20 min at 30° C. Phosphorylation was analyzed by Western blotting with phosphospecific antibodies as indicated.
(§2) Furthermore, when affinity-purified FLAG-tagged PDE3A and PDE3A2 were phosphorylated in vitro by PKA, PDE3A2 was phosphorylated more robustly than PDE3A1 at both S312 and S428 (for both isoforms, S312 was phosphorylated more robustly than S428) […].
(§3) Activation of PKC by PMA in transfected HEK293 cells results in selective phosphorylation of PDE3A2 at S428: We compared the effects of PKC activation by PMA on the phosphorylation of FLAG-tagged PDE3A1 and PDE3A2 in transfected HEK293 cells.
(§4) Illustrative immunoprecipitation and immunoblotting: Endogenous or recombinant human PDE3A, its fragments or mutants, endogenous 14-3-3 or GST-14-3-3 proteins were immunoprecipitated by incubation overnight at 4° C. with anti-FLAG(M2)-coupled agarose beads or glutathione sepharose beads. Beads were centrifuged (5,000×g, 1 min) and washed four times with 1 ml buffer containing 20 mM MOPS pH 7.2, 15 mM MgCl2, 0.5% NP40 and 150 mM NaCl. Proteins were subjected to SDS-PAGE (8% polyacrylamide) and electrophoretic transfer to nitrocellulose membranes. Membranes were blocked using 5% nonfat milk in Tris-buffered saline (50 mM Tris pH 7.5, 150 mM NaCl, 0.1% Tween-20) for 1 h at room temperature and incubated with primary and HRP-conjugated secondary antibodies prepared in 5% (w/v) bovine serum albumin. Protein bands were visualized using an enhanced chemiluminescence detection system.
(§5) Treatment of cells with pharmacologic agents: HEK293 cells expressing the human PDE3A constructs were incubated at 37° C. in serum-free medium containing isoproterenol for 90 sec or PMA for 15 min. At the end of the incubation period, cells were solubilized in lysis buffer containing 20 mM MOPS pH 7.2, 15 mM MgCl2, 0.5% NP40, 150 mM NaCl, 5 mM EDTA, protease inhibitor cocktail and phosphatase inhibitor cocktail 3. Cellular debris was removed by centrifugation (1,000×g; 5 min), and cleared supernatants were used in the experiments.

[4] = system: PDE3A2; assay: Gel-filtration chromatography and two-dimensional analysis of proteins co-immunoprecipitated with PDE3A2 from transfected HEK293 cells; format: cell-based, human; settings: 10 ng/ml PMA 15 min; isoelectric focusing and SDS-PAGE
Description: FIGS. 5A-5B Illustrate two-dimensional analysis of HEK293 cell proteins co-immunoprecipitated with PDE3A, wherein FLAG-tagged PDE3A1- and PDE3A2-transfected HEK293 cells were treated with 1 μM isoproterenol for 90 sec or 10 ng/ml PMA for 15 min, respectively; untransfected, untreated cells served as controls. PDE3A1 and PDE3A2 were immunoprecipitated with anti-FLAG antibody. PDE3A isoforms and co-immunoprecipitated proteins were eluted with 250 μg/ml of 3×FLAG peptide and submitted to isoelectric focusing followed by SDS-PAGE. Proteins were visualized by silver staining, and spots were quantified and analyzed for inter-gel comparison using PDquest 8.1 software. Experiments were carried out in triplicate, such that (A) Images from one experiment are shown. […]
PKA and PKC modulate the catalytic activity of PDE3A and PDE3A2 through distinct molecular mechanisms: In view of the reported effects of PKA and PKC on PDE3A activity^3-6, we examined the effects of phosphorylation at S312 and S428 on the cAMP-hydrolytic activity of PDE3A isoforms in transfected HEK293 cells. […] To determine whether similar consequences of phosphorylation occur in the case of PDE3A isoforms, protein extracts from transfected HEK293 cells, untreated or exposed to either isoproterenol or PMA, were analyzed by gel-filtration chromatography, measurement of catalytic activity and Western blotting. […]

[5] = system: PDE3A2; assay: Phosphorylation and 14-3-3 binding of FLAG-tagged PDE3A2 in transfected HEK293 cells; format: cell-based, human; settings: PMA 10 ng/ml 15 min; for phosphorylation of PDE3A2 at S312 / phosphorylation of PDE3A2 at S428: isoproterenol 90 sec, dibutyryl cAMP 1 mM 1 hour, phosphospecific antibodies
Description: as §1, §2, §3, §4, §5

[6] = system: PDE3A2; assay: cAMP-hydrolytic activity of FLAG-tagged PDE3A2 in transfected HEK293 cells; format: cell-based, human; settings: 10 ng/ml PMA 15 min, 1 mM dBcAMP 1 hour
Description: (§6) FIGS. 9A-9B illustrate stimulation of PDE3A2 and PDE3A1 activity in response to PKC and PKA activation. (A) HEK293 cells were transfected with FLAG-tagged PDE3A2, with and without alanine substitution at S428, and treated with 10 ng/ml PMA for 15 min or 1 mM dBcAMP for 1 hour. (B) HEK293 cells were transfected with FLAG-tagged PDE3A1, with and without alanine substitutions at S312 and S428, and treated with 1 μM isoproterenol for 90 sec, 10 ng/ml PMA for 15 min or 1 mM dBcAMP for 1 hour. PDE3 activity was assayed as described. PDE3A constructs were immunoprecipitated with anti-FLAG antibody, and phosphorylation was analyzed by immunoblotting with anti-FLAG and phosphospecific antibodies as indicated; and
(§7) PKA and PKC modulate the catalytic activity of PDE3A and PDE3A2 through distinct molecular mechanisms: In view of the reported effects of PKA and PKC on PDE3A activity^3-6, we examined the effects of phosphorylation at S312 and S428 on the cAMP-hydrolytic activity of PDE3A isoforms in transfected HEK293 cells. […] This stimulation was not observed when cells were treated with either the EPAC activator 8-pCPT-2′-O-Me-cAMP or with sodium butyrate (FIG. 3). […] To determine whether similar consequences of phosphorylation occur in the case of PDE3A isoforms, protein extracts from transfected HEK293 cells, untreated or exposed to either isoproterenol or PMA, were analyzed by gel-filtration chromatography, measurement of catalytic activity and Western blotting. Under basal conditions, PDE3 activity and protein was recovered in a biphasic pattern in low- and high-molecular-weight peaks (FIG. 5).
(§8) Measurement of cAMP-hydrolytic activity: cAMP-hydrolytic activity was quantified at 30° C. by the two-step snake-venom method with [^3H]cAMP (1 μM) as substrate; PDE3 activity was quantified by measuring activity in the absence and presence of cilostamide. The amount of protein used per assay and the incubation times were adjusted to ensure that no more than 20% of the total cyclic nucleotide was hydrolyzed during the assay.
as §5

[7] = system: PDE3A1; assay: cAMP-hydrolytic activity of FLAG-tagged PDE3A1 in transfected HEK293 cells; format: cell-based, human; settings: 1 mM dBcAMP 1 hour; for cAMP-hydrolytic activity of PDE3A1: 1 μM isoproterenol 90 sec, 50 μM 8-pCPT-2′-O-Me-cAMP or 0.1 mM sodium butyrate 1 hour
Description: FIG. 3 Illustrates an illustrative effect of d8-pCPT-2′-O-Me-cAMP and sodium butyrate on PDE3A1 activity, wherein HEK293 cells were transfected with FLAG-tagged PDE3A and treated with 50 μM d8-pCPT-2′-O-Me-cAMP, 0.1 mM sodium butyrate or 1 mM dBcAMP for 1 hour. PDE3A activity was assayed as described;
as §6, §7, §8, §5

[8] = treatment of dilated cardiomyopathy; cited from earlier work

insulin: insulin, used to treat 3T3 adipocytes
percentage of PKB co-purifying with PDE3B ([1]; gel filtration): appeared to increase the percentage of PKB co-purifying with PDE3B
phosphorylation of PKB [1]: increased the phosphorylation of PKB

Cc1[nH]c(=O)c(C#N)cc1-c1ccncc1 [milrinone]
effects on cAMP-hydrolytic activity [2]: more potent effects in microsomal fractions

O=C1CCc2cc(OCCCCc3nnnn3C3CCCCC3)ccc2N1 [cilostazol]
effects on cAMP-hydrolytic activity ([2]; cytosolic versus microsomal fractions of human myocardium): more potent effects in microsomal fractions

CCCCCCCCCCCCCC(=O)O[C@@H]1[C@@H](C)[C@@]2(O)[C@@H](C=C(CO)C[C@]3(O)C(=O)C(C)=C[C@@H]23)[C@@H]2C(C)(C)[C@]12OC(C)=O [PMA]
phosphorylation of PDE3A1 at S428 [3]: little increase in phosphorylation at S428
binding of PDE3A1 to endogenous 14-3-3 (co-immunoprecipitation) ([3]; isoproterenol 90 sec): little increase in binding to endogenous 14-3-3
phosphorylation of PDE3A1 at S312 ([3]; isoproterenol 90 sec): no increase in phosphorylation of S312
number of proteins co-immunoprecipitated with PDE3A2 [4]: increased the number of proteins that co-immunoprecipitated with PDE3A2
binding of PDE3A2 to endogenous 14-3-3 (co-immunoprecipitation) [5]: increased binding to endogenous 14-3-3
phosphorylation of PDE3A2 at S312 [5]: no increase in phosphorylation at S312
phosphorylation of PDE3A2 at S428 [5]: marked increase in phosphorylation at S428
stimulation of cAMP-hydrolytic activity of PDE3A2 with S428A substitution [6]: blocked
cAMP-hydrolytic activity of PDE3A2 ([6]; isoproterenol): increase in cAMP-hydrolysis

CCCC(=O)Nc1ncnc2c1ncn2[C@@H]1O[C@@H]2COP(=O)(O)O[C@H]2[C@H]1OC(=O)CCC [dibutyryl cAMP]
phosphorylation of PDE3A1 at S428 [3]: significant increase in the phosphorylation of PDE3A at both S312 and S428
phosphorylation of PDE3A1 at S312 ([3]; isoproterenol 90 sec): significant increase in the phosphorylation of PDE3A at both S312 and S428
phosphorylation of PDE3A2 at S312 [5]: phosphorylation at both S312 and S428
phosphorylation of PDE3A2 at S428 [5]: phosphorylation at both S312 and S428
cAMP-hydrolytic activity of PDE3A1 [7]: stimulation of cAMP-hydrolytic activity
cAMP-hydrolytic activity of PDE3A1 construct with S312A and S428A substitutions [7]: same stimulation of catalytic activity
stimulation of cAMP-hydrolytic activity of PDE3A2 with S428A substitution [6]: similarly blocked by the S428A mutation

Nc1cc(-c2ccncc2)c[nH]c1=O [amrinone]
initial hemodynamic responses [8]: favorable hemodynamic responses

CCCC(=O)[O-].[Na+] [sodium butyrate]
cAMP-hydrolytic activity of PDE3A1 [7]: not observed

CO[C@@H]1[C@@H]2OP(=O)(O)OC[C@H]2O[C@H]1n1c(Sc2ccc(Cl)cc2)nc2c(N)ncnc21 [8-pCPT-2′-O-Me-cAMP]
cAMP-hydrolytic activity of PDE3A1 [7]: not observed
